According to US9480253B2, “Use of 3-(2,4,6-Trimethylphenyl)-4-neopentylcarbonyloxy-5,5-tetramethylene-delta-3-dihydrofuran-2-one for controlling psyllids” (BAYER INTELLECTUAL PROPERTY GMBH, priority 2004, dated 2016):

What was measured:
Trioza erythreae = test: Field spray test against psyllids on orange trees (Example A); format: in vivo; details: 144 g a.i./ha, 240 SC + 0.2% RME; for Efficacy in % Abbott 7TNAA: 540 l water per ha, 7 days after the first treatment; for Efficacy in % Abbott 7TNAB / Efficacy in % Abbott 13TNAB: two applications at interval of one week; for Efficacy in % Abbott 7TNAB: 7 days after the last treatment; for Efficacy in % Abbott 13TNAB: 13 days after the last treatment
Protocol: • Pest: Trioza erythreae • Plant: Orange
The compound of the formula (I) (240 SC) was tested at an application rate of 144 g a.i./ha+0.2% a.i. rapeseed oil methyl ester (RME) at 540 l water per ha in comparison with spirodiclofen application rate comparison.
Spraying was effected by means of a pneumatic knapsack sprayer.
The experiment was carried out using one tree per plot and three replications. In each case two applications were carried out at an interval of one week.
The activity against psyllids was determined by counting the number of live animals on 20 leaves per tree 7 days after the first treatment and 7 and 13 days after the last treatment. The efficacy was calculated with the aid of Abbott's formula.

Paratrioza cockerelli = test: Field spray test against psyllids on tomato (Example B); format: in vivo; details: 72 g a.i./ha, 240 SC
Protocol: • Pest: Paratrioza cockerelli • Plant: Tomato The compound of the formula (I) (240 SC) was tested at an application rate of 72 […] water application rate of 345 l ha in comparison with Leverage (48 g a.i./ha imidacloprid+33 […]). Spraying was effected by means of a manually operated knapsack sprayer. The experiment was carried out with 10-m^2 plots and three replications. In each case two applications were carried out at an interval of one week. The activity against […] determined by counting the number of live animals on 10 leaves 7 days after the first treatment and 7 and 14 days after the second treatment. The efficacy was calculated with the aid of Abbott's formula.

[1] = test system: insects from the family Psyllidae; test: Control of insects from the family Psyllidae, comparison with spirodiclofen; format: in vivo
[2] = known from EP-A-0 528 156; cited from earlier work
[3] = test system: insects from the family Aleyrodidae; details: known from EP-A-0 528 156; cited from earlier work
psyllids = details: under certain conditions; timing of application very limited (De Maeyer et al.); cited from earlier work

| SMILES | Efficacy in % Abbott 7TNAA (Trioza erythreae) [% Abbott] | Efficacy in % Abbott 7TNAB (Trioza erythreae) [% Abbott] | Efficacy in % Abbott 13TNAB (Trioza erythreae) [% Abbott] | Efficacy in % Abbott 7TNAA (Paratrioza cockerelli; 345 l water/ha, 7 days after the first treatment) [% Abbott] | Efficacy in % Abbott 7TNAB (Paratrioza cockerelli; two applications at interval of one week, 7 days after the second treatment) [% Abbott] | Efficacy in % Abbott 14TNAB (Paratrioza cockerelli; two applications at interval of one week, 14 days after the second treatment) [% Abbott] | effectiveness in controlling insects from the family Psyllidae relative to spirodiclofen [1] | acaricidal activity [2] | activity against insects from the family Aleyrodidae [3] | ovicidal activity against psyllids (psyllids) |
| --- | --- | --- | --- | --- | --- | --- | --- | --- | --- | --- |
| Cc1cc(C)c(C2=C(OC(=O)CC(C)(C)C)C3(CCCC3)OC2=O)c(C)c1 [Compound of the formula (I), 3-(2,4,6-Trimethylphenyl)-4-neopentylcarbonyloxy-5,5-tetramethylene-Δ^3-dihydrofuran-2-one] | 95 | 97.5 | 95.2 | 80.3 | 84.8 | 98.7 | considerably more effective than spirodiclofen | acaricidal activity | active |  |
| CCC(C)(C)C(=O)OC1=C(c2ccc(Cl)cc2Cl)C(=O)OC12CCCCC2 [Spirodiclofen, reference compound] | 80.3 | 91.5 | 88.1 |  |  |  |  |  |  | ovicidal activity |
